Legend:
Assay type in all cases: biochemical
Human liver Cathepsin B = Human liver Cathepsin B (Homo sapiens (Human), UniProt P07858); assay: Cathepsin B inhibition, fluorometric Z-R-R-AMC assay; settings: 1.1 nM cathepsin B, 60 μM Z-R-R-AMC, pH 6.0, 5 min preincubation, 37° C.
Experimental: Human liver Cathepsin B (Calbiochem) was pre-incubated with test compound at various concentrations for 5 minutes at 37° C. The assay was initiated by addition of substrate Z-Arg-Arg-aminomethylcoumarin (“Z-R-R-AMC” Bacchem) and the final assay conditions were 1.1 nM cathepsin B, 60 μM Z-R-R-AMC, 126 mM sodium potassium phosphate pH 6.0 (Fisher), 0.3 mM EDTA (Omnipure), 2.7 mM DTT (Omnipure), 0.004% BRIJ 35 (Sigma), and 2.0% DMSO (Acros) in a final volume of 200 μL. Test compounds were serially diluted with DMSO and 0.01% BRIJ 35 to include a final concentration range of 20 μM to 10 pM. The reaction was monitored fluorometrically for 5 minutes at 37° C. using black 96-well Corning 3686 assay microplates with a Thermo Fluoroskan Ascent FL microplate reader at excitation and emission filter wavelengths of 355 nm and 460 nm, respectively. Data were analyzed to determine IC50 values utilizing GraphPad Prism 4.03 software with a minimum of a triplicate on the same microplate.

Human liver Cathepsin L = Human liver Cathepsin L (Homo sapiens (Human), UniProt P07711); assay: Cathepsin L inhibition, fluorometric Z-F-R-AMC assay; settings: 1 nM cathepsin L, 50 μM Z-F-R-AMC, pH 5.5, 5 min preincubation, 25° C.
Experimental: Human liver Cathepsin L (Sigma) was preincubated with test compounds at various concentrations for 5 minutes at 25° C. The assay was initiated by addition of substrate Z-Phe-Arg-aminomethylcoumarin (“Z-F-R-AMC” Bacchem) and the final assay conditions were 1 nM cathepsin L, 50 μM Z-F-R-AMC, 100 mM sodium acetate pH 5.5, 1 mM EDTA (Omnipure), 3 mM DTT (EMD), 0.01% BRIJ 35 (Sigma), and 2.0% DMSO (Acros). Test compounds were serially diluted with DMSO and water to include a final concentration range of 10 μM to 10 pM. The reaction was monitored fluorometrically for 5 minutes at 25° C. using black 96-well Corning 3686 assay microplates with a Thermo Fluoroskan Ascent FL microplate reader at excitation and emission filter wavelengths of 355 nm and 460 nm, respectively. Data were analyzed to determine IC50 values utilizing GraphPad Prism 4.03 software with a minimum of a triplicate on the same microplate.

[1] = target: Cathepsin K (activated recombinant human procathepsin K) (Homo sapiens (Human), UniProt P43235); assay: Cathepsin K inhibition, fluorometric Z-F-R-AMC assay; settings: 1.5 nM cathepsin K, 50 μM Z-F-R-AMC, pH 5.5, 5 min preincubation, 25° C.
Experimental: Recombinant human procathepsin K was obtained from Enzo Life Sciences. Activation of the proenzyme was performed in 32.5 mM sodium acetate pH 3.5, EDTA 1 mM, NaCl 500 mM, human procathepsin K 5.5 μM, at room temperature. Activation times were optimized and varied between 35 and 150 minutes. Cathepsin K was preincubated with test compounds at various concentrations for 5 minutes at 25° C. The assay was initiated by addition of substrate Z-Phe-Arg-aminomethylcoumarin (“Z-F-R-AMC” Bacchem) and the final assay conditions were 1.5 nM cathepsin K, 50 μM Z-F-R-AMC, 150 mM sodium acetate pH 5.5, 2.5 mM EDTA (Omnipure), 2.5 mM DTT (EMD), 0.01% BRIJ 35 (Sigma), and 4.0% DMSO (Acros). Test compounds were serially diluted with DMSO and water to include a final concentration range of 10 μM to 10 pM. The reaction was monitored fluorometrically for 5 minutes at 25° C. using black 96-well Corning 3686 assay microplates with a Thermo Fluoroskan Ascent FL microplate reader at excitation and emission filter wavelengths of 355 nm and 460 nm, respectively. Data were analyzed to determine IC50 values utilizing GraphPad Prism 4.03 software with a minimum of a triplicate on the same microplate.

Human liver Cathepsin L, sequence (P07711 114-333): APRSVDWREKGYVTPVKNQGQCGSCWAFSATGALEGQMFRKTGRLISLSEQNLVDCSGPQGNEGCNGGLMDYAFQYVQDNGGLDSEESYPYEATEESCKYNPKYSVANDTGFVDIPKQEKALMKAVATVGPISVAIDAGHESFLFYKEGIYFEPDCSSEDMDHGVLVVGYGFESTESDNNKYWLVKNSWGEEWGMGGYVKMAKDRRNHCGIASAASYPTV
Cathepsin K (activated recombinant human procathepsin K), sequence (P43235 115-329): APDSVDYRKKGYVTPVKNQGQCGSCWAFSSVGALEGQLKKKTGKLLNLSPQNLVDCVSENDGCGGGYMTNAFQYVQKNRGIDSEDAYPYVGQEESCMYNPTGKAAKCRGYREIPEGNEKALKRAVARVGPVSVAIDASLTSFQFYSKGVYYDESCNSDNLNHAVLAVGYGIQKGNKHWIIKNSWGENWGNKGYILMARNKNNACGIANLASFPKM

Row | IC50 (Human liver Cathepsin B) | IC50 (Human liver Cathepsin L) | IC50 [1] | Compound
1 | > 10 µM | 0.0238 µM | – | NC(=S)NN=C(c1ccccc1)c1cccc(C(O)c2ccccc2)c1 (stereo not drawn) [Compound 6, 3-Benzoyl benzhydrol thiosemicarbazone]
2 | > 10 µM | > 10 µM | – | CC(C)Oc1ccc(C(=O)c2cccc(C(=NNC(N)=S)c3ccc(OC(C)C)cc3)c2)cc1 [Compound 22, 1,3-bis-(4-isopropoxybenzoyl)benzene thiosemicarbazone]
3 | > 10 µM | 0.0243 µM | 8.5 µM | NC(=S)NN=C(c1ccc(F)cc1)c1cccc(C(=O)c2ccc(F)cc2)c1 [Compound 13, 1,3-bis-(4-fluorobenzoyl)benzene thiosemicarbazone]
4 | > 10 µM | 0.587 µM | 2.1 µM | COc1ccc(C(=NNC(N)=S)c2cccc(C(=NNC(N)=S)c3ccc(OC)cc3)c2)cc1 [Compound 33, 1,3-bis-(4-methoxybenzoyl)benzene dithiosemicarbazone]

Continued, molecule first:

Row | Compound | IC50 (Human liver Cathepsin B) | IC50 (Human liver Cathepsin L) | IC50 [1]
5 | NC(=S)NN=C(c1cc(Br)cc(C(=O)c2ccccc2F)c1)c1ccccc1F [Compound 11, 1,3-bis(2-fluoro-benzoyl)-5-bromobenzene thiosemicarbazone] | > 10 µM | 0.00812 µM | –
6 | NC(=S)NN=C(c1ccccc1)c1cc(C(=O)c2ccccc2)cc(C(=O)c2ccccc2)c1 [Compound 25, 1,3,5-Tribenzoyl benzene thiosemicarbazone] | – | 0.025 µM | 2.8 µM
7 | NC(=S)NN=C(c1ccc(Br)cc1)c1cccc(C(=O)c2ccc(Br)cc2)c1 [Compound 24, 1,3-bis-(4-bromobenzoyl)benzene thiosemicarbazone] | > 10 µM | > 10 µM | > 10 µM
8 | CC(C)Oc1ccc(C(=NNC(N)=S)c2cccc(C(=NNC(N)=S)c3ccc(OC(C)C)cc3)c2)cc1 [Compound 23, 1,3-bis-(4-isopropoxybenzoyl)benzene dithiosemicarbazone] | – | > 10 µM | > 10 µM
9 | NC(=S)NN=C(c1ccccc1)c1cccc(C(=O)c2ccccc2)c1 [Compound 3, 3-benzoyl benzophenone thiosemicarbazone] | > 10 µM | 0.0105 µM | 0.0174 µM
10 | Cc1cccc(C(=O)c2cccc(C(=NNC(N)=S)c3cccc(C)c3)c2)c1 [Compound 9, 1-(3-methylbenzoyl),3-(3-methylbenzoyl)benzene thiosemicarbazone] | – | 7.82 µM | 1.03 µM

From patent US8877967B2, “Compositions and methods for inhibition of cathepsins” (OXiGENE, Inc., priority 2012, dated 2014)
